Source: patent publication US20220378711A1, “PH-Responsive Nanoparticles for Treating Cancer” (United States Government as represented by the Department …, priority 2021, published 2022)
Like-named read-outs stand apart in the source and are kept apart here.

Assays:
MIA PaCa-2 cells [1] = experiment: MTT cell viability and CompuSyn synergy assay; format: cell-based; settings: MIA PaCa-2, 72 h MTT
Protocol: (§1) PDAC cells (5000 cells/well) were seeded in 96-well plates and, 24 h later, cells were treated with different concentrations of nanocapsulated SCH 772984, DEM, or their combinations. Control cells were treated with an equivalent level of DMSO. Drug concentrations were optimized for the cell-based assay of the individual drug. At 72 h after treatment, the cell viability assay was performed by adding 10 μL of the 3-(4,5-dimethylthiazol-2-yl)-2,5-diphenyltetrazolium bromide (MTT) reagent to each well, and the plates were incubated for 3 h at 37° C. The MTT reagent was removed, DMSO (100 μL/well) was added to solubilize the crystals, and absorbance was measured at 570 nm. Synergy analysis was performed using CompuSyn software.
(§2) The data was fitted in CompuSyn. These two cell lines were selected because MIA PaCa-2 cells are responsive to ERKi and GEM compared to Panc-1. […] However, consistent with previous studies, the Panc-1 cells were more resistant to these drugs compared to MIA PaCa-2 cells.

Panc-1 cells = experiment: MTT cell viability and CompuSyn synergy assay; format: cell-based; settings: Panc-1, 72 h MTT
Protocol: as §1, §2

MIA PaCa-2 cells [2] = experiment: Clonogenic survival assay; format: cell-based
Protocol: PDAC cells were seeded at a density of 400 cells/well in 6-well plates. The following day, cells were treated with nanoencapsulated ERKi at a concentration of 0.01 nM, carrier-encapsulated GEM at a concentration of 0.1 nM, and a combination of 0.01 nM encapsulated ERKi, and 0.1 nM encapsulated GEM for 12 days. After the incubation time, the medium was removed, and the cells were fixed with 3:1 methanol/glacial acetic acid for 15 min at room temperature. After the fixing reagent was removed, the cells were stained with 0.5% crystal violet solution (in methanol) for 15 min. The plates were washed thoroughly with tap water to remove residual crystal violet. The plates were dried overnight, and the colonies were counted using Colony Doc-It imaging station using Colony Doc-It imaging software.
To examine the link between ERK and GEM resistance in PDAC cells, a Clonogenic assay was performed for anchorage-dependent growth in MIA PaCa-2 and Panc-1 cell lines in the presence or absence of free or encapsulated ERKi (10 nM) or GEM (100 nM) alone or a combination of these two drugs for 12 days. The half-effective doses of encapsulated ERKi or encapsulated GEM was purposely selected from the preceding studies shown in FIG. 6 and FIG. 7 because these doses of free-drugs have minimal or no effect on PDAC cell viability (FIG. 6) and ERK phosphorylation (FIG. 7).

[3] = LC-MS drug concentration in tumor xenograft tissue; format: in vivo, nude mice; settings: nude, mouse, intraperitoneal, injected ip as drug-pH NPs, 75 mg/kg SCH772984, 40 mg/kg GEM, read-out: drug concentration in tumor tissues
Protocol: LC-MS analysis of drugs was performed on a Q-TOF Synapt G2S mass spectrometer (Waters, Milford, Mass.) coupled with an Acquity UPLC system (Waters). Drugs were resolved on an ACUITY UPLC HSS T3 column ([…], 100 Å pore diameter, 2.1 mm×150 mm, Waters) with an acetonitrile/water gradient containing 0.1% formic acid. GEM was detected as [M+H]+, and SCH 772984 was detected as [M+2H]2+ in a positive ESI mode.
Next, in vivo studies to obtain information on the systemic stability and tumor enrichment capacity of pH NPs were performed. The fate of drug-encapsulated nanoparticles in the MIA PaCa-2-pancreatic tumor xenograft model in immune-compromised nude mice was studied. Upon intraperitoneal (ip) administration of free or drug-pH NPs [75 mg/kg for SCH772984 and 40 mg/kg for GEM; human equivalent dose (HED)] for 48 h in tumor-bearing mice (N=3), the drug concentrations in tumor tissues was measured using LC-MS.

[4] = cited from earlier work
[5] = system: ERK phosphorylation (p44/p42 MAPK/ERK1/2); experiment: Western blot of ERK activity in PDAC cells; format: cell-based
Protocol: Western blot analysis was the same as described in Mol. Cancer Ther. 2019, 18, 788-800. Briefly, cells were seeded at a cell density of 500,000 cells/well in 6-well plates. About 60% of confluent cells were treated with nanoparticles alone (NPA), free ERKi (FEI), or encapsulated ERKi (EEI) for 3 h at 0.001, 0.01, 0.1, 1, and 10 nM concentrations of the drug. Cells were lysed in a lysis buffer (50 mmol/L Tris pH7.4, 150 mmol/L sodium chloride, 1% NP-40, 0.25% sodium deoxycholate, 1 mmol/L EDTA) containing PMSF and Protease/Phosphatase Inhibitor Cocktail (Cell Signaling Technologies). Proteins were quantified with the Pierce BCA protein assay kits (Thermo Fisher Scientific). Under reducing conditions, a […] sample was loaded onto 10% SDS gels for the separation of proteins, and the resulting gel was transferred onto a […] nitrocellulose membrane. The blots were then immersed in a 5% blocking buffer made in Tris base and Tween-20 followed by incubation with antibodies against total-ERK and phospho-ERK primary antibodies (Cell Signaling Technologies; diluted in blocking buffer at 1:1000) overnight. The secondary antibody was incubated for 1 h at room temperature. The signal from the blots was detected using the Super Signal West Femto Maximum Sensitivity substrate (Thermo Fisher).
To determine the functional efficacy of ERKi-pH NPs, the question of whether encapsulated ERKi SCH 772984 can suppress the ERK activity by suppressing ERK phosphorylation (p44/p42 MAPK/ERK1/2) in PDAC cells was investigated. To do so, MIA PaCa-2 cells were exposed to nanoparticles free of SCH 772984 or encapsulated with SCH 772984 with different doses (0.1-100 nM) for 3 hours. Following treatment, total, phospho-ERK, RSK, and GAPDH were determined using Western blot analysis in the cell extracts.

[6] = cited from earlier work; remark: listed apart in the source

| SMILES | IC50 of free drug compared with encapsulated drug (MIA PaCa-2 cells [1]) | IC50 of free drug compared with encapsulated drug (Panc-1 cells) | survival and colony-forming ability (MIA PaCa-2 cells [2]; MIA PaCa-2, 12 days, ERKi 10 nM, GEM 100 nM) | concentration at 48 h [3] | pKa [4] | change of pERK level, less than 10 nM encapsulated ERKi ([5]; 10 nM, MIA PaCa-2) | total ERK and total RSK expression ([5]; MIA PaCa-2, 3 hours) | p-ERK and p-RSK levels ([5]; MIA PaCa-2, 3 hours, dose-dependent) | concentration at which inhibitory effect on p-ERK/p-RSK was first detected ([5]; MIA PaCa-2, 3 hours, doses 0.1-100 nM) | effect of ERKi on GEM's effect on PDAC cells (MIA PaCa-2 cells [2]; ERKi at minimum inhibitory concentration (0.01 nM)) | solubility [6] | solubility ([6]; listed as unencapsulated ERKi) |
| --- | --- | --- | --- | --- | --- | --- | --- | --- | --- | --- | --- | --- |
| Nc1ccn([C@@H]2O[C@H](CO)[C@@H](O)C2(F)F)c(=O)n1 [GEM, gemcitabine] | markedly higher | markedly higher | decrease the colony-forming ability of these cells significantly | ~4 ng/g |  |  |  |  |  |  |  |  |
| CCCCNCCNCCCC [N,N′-dibutylethylenediamine] |  |  |  |  | 4.0 |  |  |  |  |  |  |  |
| O=C(Nc1ccc2[nH]nc(-c3ccncc3)c2c1)[C@@H]1CCN(CC(=O)N2CCN(c3ccc(-c4ncccn4)cc3)CC2)C1 [SCH 772984] | markedly higher | markedly higher |  | ~2 ng/g |  | 2.4 fold | did not affect | markedly decreased | 100 nM | significantly enhances | low water solubility | extremely poor solubility |
